Which melting point does the source give for `CC(=O)OC1CSC(Oc2cccnc2[N+](=O)[O-])C(OC(C)=O)C1OC(C)=O` (centres undefined) here?
Its melting point is 178 °C.

With `O=[N+]([O-])c1cc2cc(Br)ccc2nc1Cl` as the compound, how does the melting point read?
The melting point was 203 °C.

Which melting point does the source give for `COc1ccc2c(c1)c(CN(O)C(C)=O)c(C)n2C(=O)c1ccc(Cl)cc1` here?
Its melting point is 160 to 161 °C.

With `CCOC(=O)Cc1cccc(C(=O)c2ccccc2)c1N` as the compound, how does the melting point read?
Its melting point is 77 to 78 °C.

For `O=S1(=O)CCC(=S)Nc2ccc(Cl)cc2C1c1ccccc1F` (centres undefined), which melting point is on record?
Its melting point is 226 °C.

Which melting point does the source give for `COC(=O)c1[nH]c2c(C)ccc(Cl)c2c1C(=O)OC` here?
The melting point was 173 to 174 °C.

For `O=c1cc(N2CCCCC2)oc2c1ccc1ccccc12`, which melting point is on record?
The melting point was 205 to 207 °C.

For `S=c1cc(N2CCCC2)ss1`, which melting point is on record?
The melting point was 230 °C.

For `COc1ccc(C(=O)Nc2nc3ccc(N)cc3c(NCc3cccs3)c2C#N)cc1`, which melting point is on record?
Its melting point is 200 to 203 °C.

Which melting point does the source give for `Cc1c(-c2ccc(OCc3ccccc3)cc2)n(Cc2ccc(OCCN3CCCCCC3)cc2)c2ccc(OCc3ccccc3)cc12` here?
Its melting point is 106 to 107 °C.

For `CCC1(C)CCCNC1=O` (centres undefined), which melting point is on record?
The melting point was 67 to 69 °C.

Which melting point does the source give for `NC(=S)NN=C(COC(=O)Nc1ccccc1)c1ccccc1` here?
Its melting point is 155 to 165 °C.

Which melting point does the source give for `CCS(=O)(=O)N(C)C1CCCOc2ccccc21` (centres undefined) here?
Its melting point is 122 to 124 °C.

For `CNc1nc(-c2ccccc2)c(-c2nc3ccccc3c(=O)n2-c2ccc(OC)cc2)s1`, which melting point is on record?
The melting point was 235 to 236 °C.

Which melting point does the source give for `CCCSc1csc(C(=O)O)c1S(=O)(=O)NC(C)(C)C` here?
Its melting point is 123 to 126 °C.

With `CCCc1c(Br)c2ccc(C(N)=O)cc2n1Cc1ccccc1Br` as the compound, how does the melting point read?
The melting point was 122 to 125 °C.

For `COc1cccc([C@H]2O[C@H](CC(=O)Nc3ccc(CCC(=O)O)cc3)C(=O)N(CC(C)(C)COC(C)=O)c3ccc(Cl)cc32)c1OC`, which melting point is on record?
Its melting point is 144 to 146 °C.

For `CCCCc1ccc(-c2[nH]c(=O)n(C3CCCCC3)c2C)cc1`, which melting point is on record?
Its melting point is 236 °C.

With `Nc1nc2ncn(O)c2c(=O)[nH]1` as the compound, how does the melting point read?
Its melting point is greater than 300 °C.

For `OCc1cn(-c2ccc(C(F)(F)F)cn2)nc1C1CCCCC1`, which melting point is on record?
The melting point was 138 to 139 °C.

With `CC(C)(C)C(Cl)=NNc1ccc([N+](=O)[O-])cc1` as the compound, how does the melting point read?
Its melting point is 94.5 to 95.5 °C.

With `O=C(Nc1cccc2c1C(=O)c1c-2n[nH]c1C1CCN(C(=O)c2cccs2)CC1)NN1CCOCC1` as the compound, how does the melting point read?
Its melting point is 218 to 220 °C.

With `NC(=O)CN1CCN(c2ccc(NC(=O)c3ccccc3-c3ccc(C(F)(F)F)cc3)cc2)CC1` as the compound, how does the melting point read?
The melting point was 226 to 228 °C.

For `CCCn1c(=O)c2[nH]c(/C=C/c3ccc(OC)c(C)c3OC)nc2n(CCC)c1=O`, which melting point is on record?
Its melting point is 255 to 256 °C.

With `O=C(C[N+](=O)[O-])OCCSc1ccccc1` as the compound, how does the melting point read?
Its melting point is 22 to 24 °C.

Which melting point does the source give for `O=[N+]([O-])c1ccc(SCCc2c[nH]cn2)cc1` here?
The melting point was 167 to 168 °C.

With `CC(=O)NC1=NN(c2ccc(Cl)cc2)C(C)C1` (centres undefined) as the compound, how does the melting point read?
Its melting point is 167 to 169 °C.

Which melting point does the source give for `Cc1cc(C(=O)NN)ccc1Br` here?
Its melting point is 164 to 166 °C.

For `CC(C)CN1CCCC1CNC(=O)c1cc(S(N)(=O)=O)cc2c1OC(C)C2` (centres undefined), which melting point is on record?
Its melting point is 182 to 184 °C.

With `CCCCOc1ccc(CCCOC(=O)NS(=O)(=O)NCCOC(C)C)c(Oc2ncc(C(F)(F)F)cc2Cl)c1` as the compound, how does the melting point read?
Its melting point is 91.4 to 91.6 °C.

For `CCOC(=O)c1cc(N(C)C)ncn1`, which melting point is on record?
The melting point was 40 to 42 °C.

For `OC1CSC(Oc2cccc(-c3ccc(F)cn3)c2)C(O)C1O` (centres undefined), which melting point is on record?
The melting point was 168 to 201 °C.

Which melting point does the source give for `O=C(CCl)NCC1(c2ccc(Cl)c(Cl)c2)CCC1` here?
The melting point was 104 to 105 °C.

With `COc1cc(OC(C)(C)C(=O)O)c(/C=C/C(=O)c2ccc(S(N)(=O)=O)cc2)cc1-c1cccs1` as the compound, how does the melting point read?
Its melting point is 164 to 165 °C.

Which melting point does the source give for `N#Cc1cnc2c(-c3ccncc3)c(-c3ccc(F)cc3)nn2c1N` here?
Its melting point is greater than 280 °C.

Which melting point does the source give for `CCCN1CCC(c2cccc(C(N)=O)c2)CC1` here?
Its melting point is 182 °C.

With `COc1cccc(C=CC2=NN(C(C)=O)C(C)Cc3cc4c(cc32)OCO4)c1OC` (centres undefined) as the compound, how does the melting point read?
Its melting point is 125 to 128 °C.

With `CC(C)Cn1cnc2c(N)nc3c(c21)CCCN3` as the compound, how does the melting point read?
Its melting point is 231 to 233 °C.

For `CC1(C)Cc2cccc(OCCNCc3cncc(C4=CCCC4)c3)c2O1`, which melting point is on record?
Its melting point is 141 °C.

With `CCc1nc(NC(=O)C2=C(O)c3ccc4ccccc4c3S(=O)(=O)N2)sc1C` as the compound, how does the melting point read?
The melting point was 268 to 270 °C.

With `CSc1nn2c(N3CCNCC3)cc(C(C)(C)C)nc2c1S(=O)(=O)c1ccccc1` as the compound, how does the melting point read?
Its melting point is 236 to 237 °C.

Which melting point does the source give for `Cc1ccc(C(=O)n2c3c(c4cc(C)ccc42)CC(C(=O)O)CC3)cc1` (centres undefined) here?
Its melting point is 200 to 203 °C.

With `COc1ccccc1Cc1nc2ccccc2c(=O)n1CCCl` as the compound, how does the melting point read?
Its melting point is 109 to 111 °C.

For `CCCCN(CCCC)CCCNc1ccccc1[N+](=O)[O-]`, which melting point is on record?
The melting point was 79 °C.

With `Cc1scc2c1N(C(=O)N1CCC(CCCCN3CCCCC3)CC1)c1ccccc1NC2=O` as the compound, how does the melting point read?
Its melting point is 209 to 210 °C.

For `FC(F)(F)Oc1ccc(C2NCCc3ccccc32)cc1` (centres undefined), which melting point is on record?
The melting point was 56.6 to 57.1 °C.

For `CCCc1c(C(=O)C(C)C)c2ccc(C(N)=O)cc2n1Cc1ccccc1OC`, which melting point is on record?
The melting point was 174 to 175 °C.

With `CC(C)(C)OC(=O)N[C@H](CC(=O)OCc1ccccc1)C(=O)N[C@H](COC(=O)OCc1ccccc1)c1ccccc1` as the compound, how does the melting point read?
Its melting point is 105 to 106 °C.

With `CCOC(=O)CN(C(=O)C(=O)N(CC(=O)OCC)S(=O)(=O)C(F)(F)F)S(=O)(=O)C(F)(F)F` as the compound, how does the melting point read?
The melting point was 88 to 90 °C.

Which melting point does the source give for `O=c1oc2ccccc2n1CCCCl` here?
Its melting point is 62 to 64 °C.

For `Cc1c(-c2ccccc2)nn(N)c1OCCN1CCCC1`, which melting point is on record?
The melting point was 109 °C.

Which melting point does the source give for `COc1ccc(S(=O)(=O)C(CCc2ccccc2)CC(=O)O)cc1OC` (centres undefined) here?
Its melting point is 161 to 162 °C.

Which melting point does the source give for `NC(N)=Nc1nc(-c2cccc(CO)n2)cs1` here?
The melting point was 229 °C.

With `CSc1ccc(CN2CCC(=O)C(C(c3ccccc3)c3ccccc3)C2)cc1` (centres undefined) as the compound, how does the melting point read?
The melting point was 126 to 128 °C.

With `Cc1cc(C)nc(S(=O)(=O)Nc2c(Cl)cccc2Cl)n1` as the compound, how does the melting point read?
The melting point was 261 to 263 °C.

For `CCCCc1cnc(C(N)=O)cc1N`, which melting point is on record?
The melting point was 103 to 105 °C.

With `CCc1cc(NC(=O)c2ccc(OC)c(OC)c2)ccc1C(C)(C)CNC(C)=O` as the compound, how does the melting point read?
The melting point was 203 to 206 °C.

For `O=C(O)COc1ccc(SCc2ccc(OC3CCc4cc(Cl)ccc43)cc2)c2c1CCC2` (centres undefined), which melting point is on record?
Its melting point is 169 to 170 °C.

Which melting point does the source give for `CC12CC(=O)NN=C1c1ccc(Br)cc1C2` (centres undefined) here?
Its melting point is 242 °C.

With `COC(=O)c1cc(-c2ccc(OC)cc2)nn(CCC#N)c1=O` as the compound, how does the melting point read?
Its melting point is 141 to 143 °C.

Which melting point does the source give for `C[C@H](NC(=O)CCC1CCC(=O)N1)C(=O)O` (some centres undefined) here?
Its melting point is 174 to 179 °C.

With `CC(C)(N)CNc1ncc2ncnc(Nc3ccc(F)c(Cl)c3)c2n1` as the compound, how does the melting point read?
Its melting point is 205 to 207 °C.

With `O=C1C(=O)c2ccc(-c3ccncc3)cc2C2=C1SCC1(CCNCC1)O2` as the compound, how does the melting point read?
The melting point was 223 to 228 °C.

With `C[C@H]1c2cc(F)ccc2-c2ccccc2N1S(=O)(=O)c1ccc(O)cc1` as the compound, how does the melting point read?
The melting point was 193 °C.

Which melting point does the source give for `CC(C)(C)OC(=O)Nc1ncc(F)s1` here?
Its melting point is 157 to 159 °C.

With `CC1(C(=O)N2C[C@H](S(=O)(=O)c3ccc(OCC(F)(F)F)cc3C(F)(F)F)C[C@H]2C(=O)NC2(C#N)CC2)CC1` as the compound, how does the melting point read?
The melting point was 126 to 127 °C.

For `COc1ccc(Sc2ncc(Cl)cn2)cc1`, which melting point is on record?
The melting point was 75 °C.

For `CC1(C)CCOc2c(CC#Cc3ccc(C(=O)O)c(O)c3)cccc21`, which melting point is on record?
Its melting point is 182 to 183 °C.

Which melting point does the source give for `O=S(=O)(NN=C(Cl)c1ccccc1Br)c1ccccc1` here?
The melting point was 120 to 122 °C.

For `CCOC(=O)CN=c1sc2ccccc2s1`, which melting point is on record?
The melting point was 88 to 89 °C.

Which melting point does the source give for `CCCN(c1ccncc1)N1C(=O)C2(Cc3ccccc3C2)c2ccccc21` here?
The melting point was 159 to 161 °C.

With `Cc1oc(-c2ccccc2)nc1CCOc1ccc(CCC#N)cn1` as the compound, how does the melting point read?
The melting point was 105 to 106 °C.

Which melting point does the source give for `COC(=O)c1ncc[nH]1` here?
Its melting point is 187 to 188 °C.

With `CNC(=O)N(O)C(C)C#Cc1ccc(Br)cc1` (centres undefined) as the compound, how does the melting point read?
Its melting point is 145 to 146 °C.
